In PubChem BioAssay AID248 (DTP/NCI, 2004):
Toxic doses and inconclusive results are not listed. No stated cut-off is given here; in the data, active means T/C of 150% or more; inactive means T/C below 125%.

Tested on: L1210 leukemia ip in BDF1 mice, survival T/C
Assay: NCI In Vivo Anticancer Drug Screen. Data for tumor model L1210 Leukemia (intraperitoneal) in B6D2F1 (BDF1) mice
Details: endpoint: mean survival time, higher = longer survival
Procedure, shortened: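 Value reflects the ratio of survival in compound-treated mice to survival in vehicle-treated controls, with both groups carrying the same transplanted tumor.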

[1] = dose: 100.0 mg/kg/injection, schedule: Q01DX009 (ip), vehicle: Klucel (hydroxypropylcellulose) (HPC)
[2] = dose: 100.0 mg/kg/injection, schedule: Q04DX003 (ip), vehicle: Klucel (hydroxypropylcellulose) (HPC)
[3] = dose: 200.0 mg/kg/injection, schedule: Q04DX003 (ip), vehicle: Klucel (hydroxypropylcellulose) (HPC)
[4] = dose: 50.0 mg/kg/injection, schedule: Q01DX001 (ip), vehicle: saline
[5] = dose: 100.0 mg/kg/injection, schedule: Q01DX001 (ip), vehicle: saline
[6] = dose: 200.0 mg/kg/injection, schedule: Q01DX001 (ip), vehicle: saline
[7] = dose: 400.0 mg/kg/injection, schedule: Q01DX001 (ip), vehicle: saline
[8] = dose: 100.0 mg/kg/injection, schedule: Q01DX001 (ip), vehicle: Klucel (hydroxypropylcellulose) (HPC)
[9] = dose: 200.0 mg/kg/injection, schedule: Q01DX001 (ip), vehicle: Klucel (hydroxypropylcellulose) (HPC)
[10] = dose: 400.0 mg/kg/injection, schedule: Q01DX001 (ip), vehicle: Klucel (hydroxypropylcellulose) (HPC)

Measured: T/C

CCCCC1=C(OCC)C(CCCC)C1=O (configuration not stated)
inactive: dose: 10.0 mg/kg/injection, schedule: Q01DX009 (ip), vehicle: Klucel (hydroxypropylcellulose) (HPC) 94 % of control | dose: 20.0 mg/kg/injection, schedule: Q01DX009 (ip), vehicle: Klucel (hydroxypropylcellulose) (HPC) 92 % of control | dose: 40.0 mg/kg/injection, schedule: Q01DX009 (ip), vehicle: Klucel (hydroxypropylcellulose) (HPC) 94 % of control | [1] 101 % of control | [2] 96 % of control | [3] 100 % of control

Cc1cc(=O)[nH]c(NCC(=O)O)n1
inactive: dose: 50.0 mg/kg/injection, schedule: Q04DX002 (ip), vehicle: saline 101 % of control | dose: 100.0 mg/kg/injection, schedule: Q04DX002 (ip), vehicle: saline 101 % of control | dose: 200.0 mg/kg/injection, schedule: Q04DX002 (ip), vehicle: saline 101 % of control

CC(O)(c1ccccc1)c1ccccc1
inactive: [4] 95 % of control | [5] 101 % of control | dose: 100.0 mg/kg/injection, schedule: Q04DX003 (ip), vehicle: saline with Tween-80 100 % of control | [6] 97 % of control | dose: 200.0 mg/kg/injection, schedule: Q04DX003 (ip), vehicle: saline with Tween-80 100 % of control | [7] 97 % of control | dose: 400.0 mg/kg/injection, schedule: Q04DX003 (ip), vehicle: saline with Tween-80 110 % of control

CC(C)(C)C1CCC(N=C(N)CSS(=O)(=O)O)CC1 (configuration not stated)
inactive: dose: 12.5 mg/kg/injection, schedule: Q04DX002 (ip), vehicle: Klucel (hydroxypropylcellulose) (HPC) 97 % of control | dose: 25.0 mg/kg/injection, schedule: Q04DX002 (ip), vehicle: Klucel (hydroxypropylcellulose) (HPC) 95 % of control

O=C(N1CCCCC1)C(Cl)(Cl)Cl
inactive: dose: 50.0 mg/kg/injection, schedule: Q01DX009 (ip), vehicle: Klucel (hydroxypropylcellulose) (HPC) 98 % of control | [1] 88 % of control | dose: 100.0 mg/kg/injection, schedule: Q04DX002 (ip), vehicle: Klucel (hydroxypropylcellulose) (HPC) 92 % of control | dose: 200.0 mg/kg/injection, schedule: Q04DX002 (ip), vehicle: Klucel (hydroxypropylcellulose) (HPC) 110 % of control

CCC(Cl)COP(=O)(CC(Cl)CC)OC(C)P(=O)(OCC(Cl)CC)OCC(Cl)CC (configuration not stated)
inactive: [8] 101 % of control | [9] 121 % of control | [10] 97 % of control

O=C(COc1ccc(Cl)c(Cl)c1)NCc1ccncc1
inactive: [8] 93 % of control | [9] 102 % of control | [10] 102 % of control

COC(=O)c1ccccc1C(=S)N1CCOCC1
inactive: [2] 97 % of control | [3] 96 % of control | dose: 400.0 mg/kg/injection, schedule: Q04DX003 (ip), vehicle: Klucel (hydroxypropylcellulose) (HPC) 94 % of control

CN(CC#N)CC#N
inactive: dose: 25.0 mg/kg/injection, schedule: Q01DX009 (ip), vehicle: saline 105 % of control | dose: 50.0 mg/kg/injection, schedule: Q01DX009 (ip), vehicle: saline 95 % of control

CC(=O)c1ccc(Br)cc1OCC(=O)O
inactive: dose: 100.0 mg/kg/injection, schedule: Q01DX009 (ip), vehicle: gum acacia 102 % of control | dose: 100.0 mg/kg/injection, schedule: Q04DX003 (ip), vehicle: gum acacia 97 % of control | dose: 200.0 mg/kg/injection, schedule: Q01DX009 (ip), vehicle: gum acacia 103 % of control | dose: 200.0 mg/kg/injection, schedule: Q04DX003 (ip), vehicle: gum acacia 92 % of control | dose: 400.0 mg/kg/injection, schedule: Q04DX003 (ip), vehicle: gum acacia 94 % of control

Cc1cn(C2SC(CO)C(O)C2O)c(=O)[nH]c1=O (configuration not stated)
inactive: [4] 97 % of control | [5] 105 % of control | [6] 100 % of control | [7] 100 % of control
